Read-outs that look alike come from different tables or passages of the source.
Legend:
anaerobia = assay: spontaneous anaerobic fermentation of flour paste sealed with rapeseed oil; assay type: cell-based; details: about 7 months spontaneous fermentation, air blocked with rapeseed oil; amounts added as
fly maggot eggs = assay: meat slice preservative experiment
glutamine metabolism = assay: spontaneous fermentation of flour paste mixed with glutamine; assay type: cell-based; details: about 25 °C, one hour, without reducing agent 8 to 9
[1] = system: L-glutamate dehydrogenation; assay: spontaneous fermentation of flour paste mixed with L-glutamate; assay type: cell-based; details: for level of water absorbed on dry test paper: paper inserted 30 minutes, without reducing agent 5 mm
[2] = cited from earlier work
[3] = trials on patients with gastric ulcer or gastrointestinal inflammation; assay type: in vivo, human; details: about 30 of about 80 tumor patients having gastrointestinal inflammation
[4] = spraying on brown spots on the face; assay type: in vivo, human; details: 5 ppm sodium selenite solution and randomly 3% aqueous sodium formate solution
[5] = trials on patients with gout, urine pH; assay type: in vivo, human
[6] = system: anaerobic bacteria or facultative anaerobic bacteria; assay type: cell-based
bacteria = assay: preservative effect on lettuce leaf, loofah juice and celery leaf in water
fermenting microorganism = assay: flour fermentation experiment; assay type: cell-based; details: second day of fermentation; without sodium selenite pH 4-5
Protocol: Two portions of flour (50 g each) were used for fermentation experiments. Each portion was mixed with an equal amount (about 50 g) of water, and to one of the mixtures sodium selenite having about 200 μg selenium was added. […] The same phenomenon was observed over 20 days of continuous monitoring (the contrast between flour fragrance and the acidic odor). As measured by pH test paper, the flour with sodium selenite on the second day of fermentation was slightly alkaline with a pH of 7-8, while the flour without sodium selenite was acidified after fermentation with a pH of 4-5. […] Since tumor cells and anaerobia cells have the same steps and processes of chemical reactions in glycolysis, it is believed that tumor cells would either stop metabolism and die, or change the metabolic pattern and turn into normal cells.

tumors = assay: administration of reducing agents in cycles to tumor patients; assay type: in vivo, human; details: advanced lung cancer, 15-month course with bevacizumab, before reducing agents
[7] = evening of same day, bare meat densely covered
[8] = next morning, maggots appeared on untreated slice
[9] = after 3 days, sodium formate 1 g 3 times per day, sodium oxalate 1 g per day

Row | Compound | fly maggot eggs on the meat slice (fly maggot eggs) | fly maggot eggs on the meat slice (fly maggot eggs; [7]) | maggots on the meat slice (fly maggot eggs; [8]) | pH value of the gas in the beaker (wet pH paper) (glutamine metabolism) | level of water absorbed on dry test paper [1] | further results
1 | N[C@@H](CS)C(=O)O [L-cysteine] | – | – | – | – | – | aqueous solution above the settled flour (anaerobia): clear and transparent
2 | O=CO [formic acid] | about 5 | – | – | – | – | maggots on the meat slice (fly maggot eggs): no maggot was hatched
3 | O=C(O)C(=O)O [oxalic acid] | – | about 5 | no maggot was hatched | about 7.5 | about 9 mm | aqueous solution above the settled flour (anaerobia): clear and transparent
4 | [Se] [selenium] | – | – | – | – | – | safe dose ([2]; oral intake): no more than 400 mg per day
5 | O=C[O-].[Na+] [sodium formate] | – | about 5 | no maggot was hatched | about 7.5 | about 9 mm | gastrointestinal discomfort [3]: alleviated gastrointestinal discomfort; colored spots in more than 10 people [4]: faded or disappeared colored spots; pain feeling of gout [5, 9]: alleviated and even disappeared; urine pH, hospital urine test ([5]; patient with a tumor, 1 g per day for two weeks): 8; pH of water in the glutinous rice [6]: slightly decreased from about 7; pH value of water in the glutinous rice [6]: about 6
6 | O=C([O-])C(=O)[O-].[Na+].[Na+] [sodium oxalate] | about 5 | – | – | about 7.5 | about 9 mm | maggots on the meat slice (fly maggot eggs): no maggot was hatched; pain feeling of gout [5, 9]: disappeared; morning urine pH by test paper ([5]; gout patients, after 3 days, sodium formate 1 g 3 times per day, sodium oxalate 1 g per day, 5.5 to 6 during onset): 7; pH of urine tested first in the morning ([5]; patients with frequent gout, 1 g per day): increased pH
7 | O=[Se](O)O [sodium selenite] | 5 | – | – | about 7.5 | 9 mm | diameter of brown rot spot on lettuce leaf (bacteria; fifth day, 180 μg selenium in 80 g tap water, 15 to 20 °C, without: about 6 mm): about 1 mm; diameter of spot on loofah juice (bacteria; fifth day, with sodium selenite): about 3 mm; day a spot first appeared on the surface of loofah juice (bacteria; loofah juice with sodium selenite, without: about 3 mm spot on second day): 3 days; pH of flour by pH test paper (fermenting microorganism): 7-8; pH value of the gas in the beaker (wet pH paper) ([1]; one hour, without sodium selenite 8): about 7.5; toxic dose ([2]; human, oral administration, publicly reported): 400 mg per day
8 | bevacizumab | – | – | – | – | – | CY211 index during course (tumors): up to 28
9 | calcium formate | – | about 5 | no maggot was hatched | about 7.5 | about 9 mm | effect on pH of water in the glutinous rice [6]: same effect
10 | selenium dioxide | – | about 5 | no maggot was hatched | about 7.5 | about 9 mm | –
11 | sodium sulfide | about 5 | – | – | – | – | maggots on the meat slice (fly maggot eggs): no maggot was hatched
